Source: US4521406A, “Antitumor agent” (priority 1980, dated 1985)
“Also recorded” adds a separate entry of the source.

Experiments:
tumor [1] = settings: general statement; cited from earlier work
[2] = system: Glioblastoma cancer cells; experiment: Glioblastoma transplanted into the brain of rats, survival (Experimental Example 6); settings: 5-fluorocytosine 4 ml (10 mg/ml) i.p. every other day; 0.02 ml cytosinedeaminase (1 IU/ml) or PBS to transplantation site
tumor [3] = experiment: General statements on antitumor activity; settings: applicant's summary of Experimental Examples 1 to 6
HeLa cells = experiment: Growth inhibition of HeLa cells (Experimental Example 1); settings: for number of cells: drug used alone (control)
human Glioblastoma = experiment: Morphological changes of human Glioblastoma (Experimental Example 4); assay type: cell-based; settings: 50 μg/ml
[4] = general statement; cited from earlier work

Nc1nc(=O)[nH]cc1F [5-fluorocytosine]
antitumor activity (tumor [1]): no antitumor activity
Average days of survival [2]: 32 days
antitumor activity of the individual agents / of combined use (tumor [3]): neither 5-fluorocytosine nor cytosinedeaminase has antitumor activity
number of cells (HeLa cells; 2 days elapsed, 24 h contact): 73 ×10^-4 cells/ml
number of cells (HeLa cells; 4 days elapsed, 24 h contact): 120 ×10^-4 cells/ml
number of cells (HeLa cells; 6 days elapsed, 24 h contact): 205 ×10^-4 cells/ml
antitumor activity when used singly (HeLa cells; HeLa cells, used alone, result in words): do not have any antitumor activity
number of cells (HeLa cells; day 0, before 24 h treatment): 29 ×10^-4 cells/ml
morphological changes (human Glioblastoma): morphological changes such as the disintegration of the cytoplasm and the deformation of the nucleus were evidently noted

O=c1[nH]cc(F)c(=O)[nH]1 [5-fluorouracil]
antitumor activity (tumor [1]): intense antitumor activity; also recorded: effective against solid tumors
toxicity [4]: intense toxicity in oral and intravenous administrations

O=c1[nH]c(=O)n(C2CCCO2)cc1F (stereo not drawn) [tetrahydrofuryl 5-fluorouracil]
toxicity [4]: low toxicity
